Source: DBAASP
Values after ≈ are worked out from the molar mass of the structure shown. Values joined by “and” are separate entries in the source; they are usually repeats but may differ in a detail not shown here. Identical values can stand only once.

Key:
Assay in all cases: ≥ marks a high value that may be exact or a test limit, other limits are often not marked, values filed in µg/mL are converted to µM
[1] = system: Candida albicans ATCC 2002
[2] = system: Escherichia coli ATCC 25922
Escherichia coli = system: Escherichia coli
[3] = system: Pseudomonas aeruginosa CMCCB 10104
[4] = system: Staphylococcus aureus ATCC 25923
Staphylococcus aureus = system: Staphylococcus aureus
[5] = system: Acinetobacter baumannii ATCC 19606
Acinetobacter baumannii = system: Acinetobacter baumannii
[6] = system: Klebsiella pneumoniae ATCC 13883
Klebsiella pneumoniae = system: Klebsiella pneumoniae
[7] = system: Pseudomonas aeruginosa ATCC 27853
Pseudomonas aeruginosa = system: Pseudomonas aeruginosa
[8] = system: Pseudomonas aeruginosa PAO1
[9] = system: Salmonella enterica subsp. enterica serovar Typhimurium ATCC 14028

| MIC [1] [µM] | MIC [2] [µM] | MIC (Escherichia coli) [µM] | MIC [3] [µM] | MIC [4] [µM] | MIC (Staphylococcus aureus) [µM] | MIC [5] [µM] | MIC (Acinetobacter baumannii) [µM] | MIC [6] [µM] | MIC (Klebsiella pneumoniae) [µM] | MIC [7] [µM] | MIC (Pseudomonas aeruginosa) [µM] | MIC [8] | MIC [9] [µM] | Structure (SMILES) |
| --- | --- | --- | --- | --- | --- | --- | --- | --- | --- | --- | --- | --- | --- | --- |
| 2.19 (≈ 4.4 µg/mL) | 2.19 (≈ 4.4 µg/mL) | 25 (≈ 50.1 µg/mL) | 4.39 (≈ 8.79 µg/mL) | 4.39 (≈ 8.79 µg/mL) | 50 (≈ 100 µg/mL) |  |  |  |  |  |  |  |  | CC[C@H](C)[C@H](NC(=O)CN)C(=O)N[C@@H](CC(C)C)C(=O)N[C@@H](CO)C(=O)NCC(=O)N[C@H](C(=O)N[C@@H](CC(C)C)C(=O)NCC(=O)N[C@@H](CCSC)C(=O)NCC(=O)N[C@@H](CCCCN)C(=O)N[C@@H](CCCCN)C(=O)N[C@H](C(=O)N[C@H](C(=O)N[C@H]1CSSC[C@@H](C(=O)O)NC(=O)[C@H](CC(C)C)NC(=O)CNC(=O)[C@H](CO)NC(=O)[C@H](CC(C)C)NC(=O)CNC1=O)C(C)C)[C@@H](C)CC)C(C)C [GILSGVLGMGKKIVCGLSGLC] |
| 2.97 (≈ 9.99 µg/mL) | 5.94 (≈ 20 µg/mL) |  | 5.94 (≈ 20 µg/mL) | 2.97 (≈ 9.99 µg/mL) |  |  |  |  |  |  |  |  |  | CC(C)C[C@H](NC(=O)CN)C(=O)N[C@@H](CC(C)C)C(=O)N[C@@H](CC(=O)O)C(=O)N[C@H](C(=O)N[C@@H](Cc1ccccc1)C(=O)N[C@@H](CCCCN)C(=O)N[C@@H](CC(N)=O)C(=O)N[C@@H](CC(C)C)C(=O)N[C@@H](C)C(=O)N[C@@H](CC(C)C)C(=O)N[C@@H](CC(N)=O)C(=O)N[C@@H](C)C(=O)N[C@@H](C)C(=O)N[C@@H](CCC(=O)O)C(=O)N[C@@H](CO)C(=O)N[C@@H](C)C(=O)NCC(=O)N[C@H](C(=O)N[C@@H](CO)C(=O)N[C@H](C(=O)N[C@@H](CC(C)C)C(=O)N[C@@H](CC(N)=O)C(=O)N[C@@H](CO)C(=O)N[C@@H](CC(C)C)C(=O)N[C@@H](CO)C(=O)N[C@H]1CSSC[C@@H](C(=O)O)NC(=O)[C@H]([C@@H](C)O)NC(=O)[C@H](CCCCN)NC(=O)[C@H](CO)NC(=O)[C@H](CC(C)C)NC(=O)[C@H](CCCCN)NC1=O)C(C)C)C(C)C)[C@@H](C)O [GLLDTFKNLALNAAESAGVSVLNSLSCKLSKTC] |
| 5.11 (≈ 17.2 µg/mL) | 2.56 (≈ 8.6 µg/mL) |  | 2.56 (≈ 8.6 µg/mL) | 2.56 (≈ 8.6 µg/mL) |  |  |  |  |  |  |  |  |  | CC[C@H](C)[C@H](NC(=O)[C@@H](NC(=O)[C@H](CC(=O)O)NC(=O)[C@H](CC(C)C)NC(=O)[C@H](CC(C)C)NC(=O)CN)[C@@H](C)O)C(=O)N[C@@H](CCCCN)C(=O)N[C@@H](CC(N)=O)C(=O)N[C@@H](CCSC)C(=O)N[C@@H](C)C(=O)N[C@@H](CC(C)C)C(=O)N[C@@H](CC(N)=O)C(=O)N[C@@H](C)C(=O)N[C@@H](C)C(=O)N[C@@H](CCCCN)C(=O)N[C@@H](CO)C(=O)N[C@@H](C)C(=O)NCC(=O)N[C@H](C(=O)N[C@@H](CO)C(=O)N[C@H](C(=O)N[C@@H](CC(C)C)C(=O)N[C@@H](CC(N)=O)C(=O)N[C@H](C(=O)N[C@@H](CC(C)C)C(=O)N[C@@H](CO)C(=O)N[C@H]1CSSC[C@@H](C(=O)O)NC(=O)[C@H]([C@@H](C)O)NC(=O)[C@H](CCCCN)NC(=O)[C@H](CO)NC(=O)[C@H](CC(C)C)NC(=O)[C@H](CCCCN)NC1=O)[C@@H](C)O)C(C)C)C(C)C [GLLDTIKNMALNAAKSAGVSVLNTLSCKLSKTC] |
|  | 4 (≈ 8.02 µg/mL) | 64 (≈ 128 µg/mL) |  | 22.6 (≈ 45.4 µg/mL) | 16 (≈ 32.1 µg/mL) | 1.41 (≈ 2.84 µg/mL) | ≥ 64 | 2.83 (≈ 5.67 µg/mL) | 8 (≈ 16 µg/mL) | 11.3 (≈ 22.7 µg/mL) | 11.3 (≈ 22.7 µg/mL) |  |  | CC[C@H](C)[C@H](NC(=O)[C@H](CCCCN)NC(=O)[C@H](CC(C)C)NC(=O)[C@H](C)NC(=O)[C@H](CCCCN)NC(=O)[C@H](CC(C)C)NC(=O)[C@H](C)NC(=O)CNC(=O)[C@H](CCCCN)NC(=O)[C@H](C)NC(=O)[C@@H](NC(=O)[C@@H](N)CCCCN)[C@@H](C)CC)C(=O)N[C@@H](C)C(=O)N[C@@H](CCCCN)C(=O)NCC(=O)N[C@@H](C)C(=O)N[C@@H](CC(C)C)C(=O)N[C@@H](CCCCN)C(=O)N[C@@H](C)C(=O)N[C@@H](CC(C)C)C(N)=O [KIAKGALKALKIAKGALKAL] |
| 0.749 (≈ 3.3 µg/mL) | 0.749 (≈ 3.3 µg/mL) |  | 1.5 (≈ 6.6 µg/mL) | 1.5 (≈ 6.6 µg/mL) |  |  |  |  |  |  |  |  |  | CC[C@H](C)[C@H](NC(=O)CNC(=O)[C@@H](NC(=O)[C@H](CCCN=C(N)N)NC(=O)[C@@H](NC(=O)[C@@H](NC(=O)[C@H](CC(=O)O)NC(=O)[C@H](CCSC)NC(=O)CNC(=O)[C@@H](NC(=O)[C@H](CCC(=O)O)NC(=O)[C@H](CCCCN)NC(=O)CNC(=O)[C@@H](NC(=O)[C@H](CC(N)=O)NC(=O)[C@H](CCCCN)NC(=O)[C@H](C)NC(=O)CNC(=O)[C@H](CCCCN)NC(=O)[C@@H](NC(=O)[C@H](Cc1ccccc1)NC(=O)[C@H](CC(C)C)NC(=O)[C@H](CC(N)=O)NC(=O)[C@H](CCCCN)NC(=O)[C@@H](NC(=O)[C@H](C)NC(=O)[C@H](CCCCN)NC(=O)CNC(=O)[C@H](CO)NC(=O)[C@@H](NC(=O)[C@@H](N)CCCCN)[C@@H](C)CC)[C@@H](C)CC)[C@@H](C)CC)C(C)C)C(C)C)C(C)C)C(C)C)[C@@H](C)O)C(=O)N[C@@H](CC(=O)O)C(=O)N[C@H](C(=O)N[C@H](C(=O)NCC(=O)N[C@H]1CSSC[C@@H](C(=O)O)NC(=O)[C@H](CCC(=O)O)NC(=O)CNC(=O)[C@H](CCCCN)NC(=O)[C@H]([C@@H](C)CC)NC(=O)[C@H](CCCCN)NC1=O)C(C)C)C(C)C [KISGKAIKNLFIKGAKNVGKEVGMDVVRTGIDVVGCKIKGEC] |
|  | > 30 |  |  | > 30 |  | > 30 |  | 30 (≈ 54.3 µg/mL) |  |  |  | 14.8 µM and 30 µM | > 30 | CC(C)C[C@H](NC(=O)[C@H](C)NC(=O)[C@H](Cc1c[nH]c2ccccc12)NC(=O)CNC(=O)[C@H](CCCN=C(N)N)NC(=O)[C@@H](N)CCCN=C(N)N)C(=O)N[C@@H](CCCN=C(N)N)C(=O)N1CCC[C@H]1C(=O)N[C@H](C(=O)N[C@@H](CC(C)C)C(=O)N[C@@H](C)C(=O)N[C@@H](Cc1ccccc1)C(=O)NCC(=O)N[C@@H](CCCN=C(N)N)C(=O)N[C@@H](CCCN=C(N)N)C(N)=O)C(C)C [RRGWALRPVLAFGRR] |
|  | > 30 |  |  | > 30 |  | > 30 |  | 30 (≈ 49.7 µg/mL) |  |  |  | > 30 µM | > 30 | CC(C)C[C@H](NC(=O)[C@H](CCCN=C(N)N)NC(=O)[C@H](CCCN=C(N)N)NC(=O)[C@H](C)NC(=O)[C@H](Cc1c[nH]c2ccccc12)NC(=O)CNC(=O)[C@H](CCCN=C(N)N)NC(=O)[C@@H](N)CCCN=C(N)N)C(=O)N[C@@H](C)C(=O)N[C@@H](Cc1ccccc1)C(=O)NCC(=O)N[C@@H](CCCN=C(N)N)C(=O)N[C@@H](CCCN=C(N)N)C(N)=O [RRGWARRLAFGRR] |
| 9.59 (≈ 24.8 µg/mL) | 2.4 (≈ 6.2 µg/mL) |  | 4.79 (≈ 12.4 µg/mL) | 4.79 (≈ 12.4 µg/mL) |  |  |  |  |  |  |  |  |  | CC[C@H](C)[C@H](NC(=O)[C@@H](N)C(C)C)C(=O)N[C@H](C(=O)N[C@@H](Cc1ccccc1)C(=O)N[C@H](C(=O)N[C@@H](C)C(=O)N[C@@H](CO)C(=O)N[C@H](C(=O)N[C@@H](C)C(=O)N[C@@H](C)C(=O)N[C@@H](CCC(=O)O)C(=O)N[C@@H](CCSC)C(=O)N[C@@H](CCSC)C(=O)N[C@@H](CCC(N)=O)C(=O)N[C@@H](Cc1cnc[nH]1)C(=O)N[C@H](C(=O)N[C@@H](Cc1ccc(O)cc1)C(=O)N[C@H]1CSSC[C@@H](C(=O)O)NC(=O)[C@H](CCCCN)NC(=O)[C@H](CCCCN)NC(=O)[C@H](CO)NC(=O)[C@H](C)NC(=O)[C@H](C)NC1=O)C(C)C)C(C)C)C(C)C)C(C)C [VIVFVASVAAEMMQHVYCAASKKC] |
